Patent US8715677B2, “Immunological uses of immunomodulatory compounds for vaccine and anti-infectious disease therapy” (Celgene Corporation, priority 2005, dated 2014)

What was measured:
Format in all cases: cell-based
[1] = test system: regulatory T cells; experiment: Treg suppression of anti-CD3 mAb activated CD4+CD25- cell proliferation; settings: for suppressive function of Treg on anti-CD3 mAb activated CD4+CD25- cells: pre-incubation of Treg with compound
Protocol: An assay in which the ability of isolated Treg to suppress anti-CD3 mAb activated CD4+CD25− cells was performed.
Regulatory T cells were isolated by the Dynal T regulatory cell isolation kit, and treated for 24 hours with varying concentrations of an immunomodulatory compound (Actimid™ or lenalidomide) or DMSO. The cells were washed and incubated at a 1:2 ratio with CD25^−CD4^+ cells, which were also isolated by the Dynal T regulatory cell isolation kit. Results were expressed as the mean % change in proliferation compared to the cpms obtained from DMSO treated CD25^+ cells incubated with CD25^− cells.

[2] = test system: Raji cells; experiment: Direct effects on NHL tumor cells, alone or with anti CD20 antibodies; settings: for effect in combination with anti CD20 antibody B1: 10 μM / up to 10 μM
Protocol: Direct effects of IMiDs on NHL tumor cells were tested by treating Raji cells with IMiDs alone, or in combination with anti CD20 antibodies B1 or rituxan. IMiD 1 alone caused up to 40% inhibition of proliferation at 10 μM in Raji cells, which corresponded to G1 arrest.

[3] = test system: Gab2; experiment: Gab2 phosphorylation in anti-CD3/CD28 stimulated Jurkat T cells; settings: at about 1 μM, dose-dependent
Excerpt: The Gab proteins, including Gab1, Gab2 and Gab3 comprise a growing family of phospho-tyrosine regulated scaffolding molecules involved in RTK signal transduction. Phosphorylation of Gab1 in B cells is associated with P13-kinase activity and cell proliferation. While Gab1 is expressed in B cells, only Gab2 is expressed in T cells. Although Gab2 is tyrosine phosphorylated upon TCR activation by ZAP-70, it functions as a negative regulator of TCR signaling via a Shp-2 dependent mechanism. Overexpression of Gab2 in T cells results in the inhibition of IL-2 production (Yamasaki et al., J. Biol. Chem., 2001). The effect of lenalidomide on Gab2 phosphorylation and activation in anti-CD3/CD28 stimulated Jurkat T cells was examined. Lenalidomide inhibited Gab2 phosphorylation dose-dependently (with approximately 50% inhibition at about 1 μM) in a manner that correlated with T cell costimulation and enhancement of IL-2 production.

[4] = test system: Rituximab-resistant cell line 2R; experiment: Rituximab-mediated ADCC by primed PBMC, 51Cr release, 2R cells; settings: E:T 40:1
Protocol: (§1) Rituximab-resistant cell lines (RRCL) were generated by chronic exposure of Raji cells to escalating doses of rituximab alone (2R) or along with human complement (4RH). […] To study the effects of lenalidomide-priming of PBMC's against RRCL, peripheral blood mononuclear cells from healthy donors were cultured with either DMSO or lenalidomide (at final concentrations of 10 or 20 μg/ml), with or without IL-2 (20 IU/ml), over a 5-day period at 37° C., 5% CO2. Parentral Raji, and RRCL (2R and 4RH) were labeled with ^51Cr and exposed to either rituximab or trastuzumab (Isotype control at 20 μg/ml) in the presence of an IMiD or control stimulated-PBMCs (Effector:Target ratio of 40:1). ^51Cr release was measured and the percentage of lysis was calculated. Statistical differences were analyzed by chi-square test.

[5] = test system: Rituximab-resistant cell line 4RH; experiment: Rituximab-mediated ADCC by primed PBMC, 51Cr release, 4RH cells
Protocol: as §1

[6] = test system: Foxp3; experiment: Foxp3 expression in CD4+CD25+ cells (intracellular staining); settings: CD4+CD25+ cells incubated 24 hours; FIG. 3
Protocol: CD4^+CD25^+ cells were incubated for 24 hours with varying concentrations of DMSO, Actimid™, lenalidomide, or thalidomide and then washed twice with RPMI medium. Cells were stained with CD152-PE, CD4-PERCP, and CD25-APC. Intracellular Foxp3 staining and CD152 staining were carried out after permeabilizing the CD4^+ CD25^+ cells. Results were expressed as percentage of expression of Foxp3 in the CD4^+CD25^+ population or the CD4^+CD25^− population.

[7] = test system: γδ T cells; experiment: Apoptosis of γδ T cells (annexin V PE / 7-AAD); settings: with or without IPP; FIG. 6
Protocol: Gamma delta T cells were treated with a single dose of 25 μM IPP and weekly with 150 U/ml of IL-2 for 4 weeks and 3 days. Cells were then either left untreated or treated with Actimid™, IPP or Actimid™ and IPP. Apoptosis was assessed by staining of cells with annexin V PE and 7-AAD at various time points and analysis using a FACSCalibur.
Gamma delta T cells were treated with a single dose of 25 μM IPP and weekly with 150 U/ml of IL-2 for 31 days. Cells were then either left untreated or treated with Actimid™, IPP, or Actimid™ and IPP in combination. Apoptosis was assessed by staining of cells with annexin V PE and 7-AAD at the stated time points and analysis using a FACSCalibur. Annexin V PE negative/7-AAD negative cells are designated live, annexin V PE positive/7-AAD negative early apoptotic, annexin V PE positive/7-AAD positive late apoptotic and annexin V PE negative/7-AAD positive dead.

[8] = test system: γδ T cells; experiment: Cytokine production by γδ T cells
Protocol: Purified γδ T cells were stimulated with IPP±IMiDs ([…]) or with the MM cell line RPMI-8226 (±IMiDs ([…])) in 24 well plates and were incubated 8-72 hours. Cell-free supernatants were collected and stored at −70° C. until assayed by ELISA. IFN-γ, TNF-α and IL-2 were measured by ELISA (BD pharmingen). For fresh δγ preps, PBMCs were stimulated with plate bound anti-CD3 (1.25 μg/ml) for 48 hours and the expression of TNF-α, IFNγ, IL-2 and IL-4 were measured by intracellular FACS on cells stained for γδ TCR.
The effects of Actimid™ on IFN-γ, TNF-α, and IL-4 were examined in freshly prepared γδ T cells and γδ T cell lines stimulated with IPP.

[9] = test system: γδ T cells; experiment: IFN-γ production by γδ T cells in co-culture with tumor cells; settings: co-culture with RPMI-8226 MM cells, with or without pamidronate; FIG. 8
Protocol: Tumor cells pre-incubated with (FIG. 8B) or without (FIG. 8A) pamidronate were incubated with δγ T cells at different tumor (RPMI-8226 MM) to γδ T cells ratios as indicated in FIG. 8. Some of the cells were further treated by Actimid™. Intracellular IFN-gamma production was measured by flow cytometry.

[10] = test system: RPMI-8226 MM cell lines; experiment: Cytotoxicity of γδ T cells, chromium release assay
Protocol: Gamma delta T cells were treated with a single dose of 25 μM IPP and weekly with 150 U/ml of IL-2 for 3 weeks and 1 day. RPMI-8226 target cells were incubated overnight with 50 μM pamidronate then treated with 3MBq 51Cr. Target, and effector cells were incubated at different ratios and chromium release was assayed after 4 hours. To determine the effects of Actimid™, the compound was either included in the 22 day preincubation before the assay and in the chromium release step, or was included during the chromium release assay.
Gamma delta cells were treated with a single dose of 25 μM IPP and weekly with 150 U/ml of IL-2 for 22 days. RPMI-8226 target cells were incubated overnight with 50 μM pamidronate, then treated with 3 MBq 51 Cr. Target and effector cells were incubated at various ratios with fresh Actimid™ and chromium release assayed after 4 hours. Actimid™ was also added to some wells for the 22 day pretreatment with IL-2 and IPP (FIG. 9A) or just for the 4 hr chromium release assay (FIG. 9B).

[11] = TCR γδ cells within freshly prepared PBMC population

Nc1cccc2c1CN(C1CCC(=O)NC1=O)C2=O (centres unmarked) [lenalidomide, 3-(4-amino-1-oxo-1,3-dihydro-isoindol-2-yl)-piperidine-2,6-dione]
suppressive function of Treg on anti-CD3 mAb activated CD4+CD25- cells [1]: inhibits the suppressive function | effect in combination with anti CD20 antibody B1 [2]: minimal | inhibition of Gab2 phosphorylation [3]: approximately 50%

Nc1cccc2c1CN(C1CCC(=O)NC1=O)C2=O (centres unmarked) [IMiD]
rituximab-mediated ADCC, mean % lysis ([4]; PBMC exposed to IMiD for 5 days): 26.9+/−1.18% | rituximab-mediated ADCC, mean % lysis ([4]; PBMC exposed to IMiD+IL-2 for 5 days): 38.4+/−4.14% | mean % of lysis by ADCC ([5]; IMiD exposed PBMC): 26.5+/−1.83% | mean % of lysis by ADCC ([5]; combination IMiD/IL-2 exposed PBMC): 38.4+/−4.1%

O=C1CCC(N2C(=O)c3ccccc3C2=O)C(=O)N1 (centres unmarked) [thalidomide, reference compound]
proliferation of CD25- cells in the presence of CD25+CD4+ cells, compared to DMSO treated CD4+CD25+ cells ([1]; Treg treated 24 hours, washed, 1:2 ratio with CD25-CD4+ cells, FIG. 2): little effect | Foxp3 expression [6]: little effects

Nc1cccc2c1C(=O)N(C1CCC(=O)NC1=O)C2=O (centres unmarked) [Actimid, 4-(amino)-2-(2,6-dioxo(3-piperidyl))-isoindoline-1,3-dione]
suppressive function of Treg on anti-CD3 mAb activated CD4+CD25- cells [1]: inhibits the suppressive function | effect in combination with rituxan ([2]; 10 μM): slight additive effect | effect in combination with anti CD20 antibody B1 [2]: small additive effect | apoptosis in γδ T cells [7]: protection against apotosis | production of IFN-γ [8, 11]: enhanced | production of TNF-α [8, 11]: enhanced | production of IFN-γ ([8]; γδ T cells stimulated with IPP): enhanced | production of IL-4 ([8]; γδ T cells stimulated with IPP): not | IFN-γ production by γδ T cells [9]: augmented | cytotoxicity of γδ T cells toward RPMI-8226 MM cell lines ([10]; compound added during the 4 hr chromium release assay only, FIG. 9B): enhanced | cytotoxicity of γδ T cells toward RPMI-8226 MM cell lines ([10]; compound added during the 22 day pretreatment, FIG. 9A): enhanced
